According to patent publication US20250108049A1, “COMPOUNDS FOR TREATING MDS-ASSOCIATED ANEMIAS AND OTHER CONDITIONS” (Agios Pharmaceuticals, Inc., priority 2021, published 2025):

How the values were obtained:
NHD13 mice [1] = test: Whole blood hematology in NHD13 mice (Example 5); assay type: in vivo, mouse; settings: NHD13 mice aged 4 months, in chow, 20 weeks of treatment
Method: (§1) To determine the impacts of mitapivat and Compound 1 under these conditions, bone marrow aspirates from diseased mice were collected and populations of erythroblasts were evaluated at various stages of maturation using flow cytometry. Hemoglobin (Hb), red blood cell (RBC) counts, and reticulocyte fractions were also monitored every 4 weeks in whole blood on a Sysmex XN-1000™ hematology analyzer to determine if disease burden and impact on erythroblast maturation could be detected in the periphery. Pharmacodynamics and pharmacokinetic analysis were also performed to confirm appropriate exposure and target engagement of the compounds (data not shown).
(§2) A NUP98-HOXD13 (NHD13) transgenic MDS associated mouse model will also be used to assess the therapeutic benefit of disclosed compounds. See e.g., Lin et al., Blood 2005 Jul 1;106(1):287-95 and Suragani et al., Nat Med 2014 Apr;20(4):408-14. Male and female NHD13 mice aged to 4 or 10 months will be administered a disclosed compound in chow, ad libitum (e.g., mitapivat or Compound 1) daily. A full blood panel and erythroid precursor analysis will be conducted after 2 months of treatment, and results will be analyzed.
Using Example 4, 20 NHD13 mice (10 males and 10 females per group; RRID:IMSR_JAX:010505) aged 4 months were randomized into treatment groups using matched distribution of hemoglobin levels. Mice were dosed with either mitapivat or Compound 1 for 20 weeks in the same manner (in chow, ad libitum) as Example 3. After 20 weeks of treatment with either mitapivat or Compound 1, bone marrow aspirates of the NHD13 mice were collected as described above and analyzed by flow cytometry. […] In addition, a significant decline in survival of vehicle control NHD13 mice as previously reported (Lin et al., […] 2005 July;106(1)) was not observed. […] This mild state of disease was also supported in whole blood analysis. […] Data not shown.

Polg^D257A mice [2] = test: Whole blood Hb, RBC and reticulocyte analysis in Polg^D257A mice, second experiment (Example 3); assay type: in vivo, mouse
Method: as §1
(§3) A second experiment was performed using the Polg^D257A model (RRID:IMSR_JAX:017341) from Example 2. In this experiment 20 mice (10 males and 10 females per group) were dosed with either mitapivat or Compound 1 in chow as described in Example 2. For the mitapivat group, the compound was dosed at 200 mg/kg/day and for the Compound 1 group, Compound 1 was dosed at 10 mg/kg/day. Treatment was started when the mice were 4 months of age and was continued for 8 months (rolling enrollment). Following 8 months of treatment (at 12 months of age), an evaluation of bone marrow aspirates was conducted by flow cytometry using well established markers of erythropoiesis following a modified procedure outlined in Suragani et al., Nat Med 2014 Apr; 20(4):408-14. Bone marrow aspirates were treated with ACK lysis buffer for 3 minutes to remove red blood cells from the sample. Remaining cells were washed and maintained in PBS+5% FBS throughout the remainder of the procedure. The flow cytometry panel included live/dead (Indol), B220 (BV421), CD5 (BV421), CD71 (AF700), and Terl19 (PE) antibodies. The gating strategy used for analysis was as follows: Live/B220-CD5-/Terl19+. Ter119+cells were then gated into populations using CD71 and FSC as outlined in the literature (Suragani et al., Nat Med 2014 Apr; 20(4):408-14; FIG. 6E). […] FIG. 6D. Flow cytometry data on the mitapivat treated Polg^D257A mice is not available as the mitapivat treatment arm is not yet completed.
Data not shown. After 24 weeks (6 months thus far) of treatment, mitapivat increased Hb and RBC counts by 7% in Polg^D257A mice, with no change in reticulocytes. Data not shown. After 32 weeks of treatment with Compound 1 no change in Hb, RBC count, or reticulocyte fraction was observed. Data not shown.

NHD13 mice [3] = test: Bone marrow aspirate flow cytometry of erythroblast populations in NHD13 mice (Example 5); assay type: in vivo, mouse; settings: NHD13 mice aged 4 months, in chow, 20 weeks of treatment; mild disease in model
Method: as §1
as §2, with “Male and female NHD13 mice aged to 4 or 10 months will be administered a disclosed compound in chow, ad libitum (e.g., mitapivat or Compound 1) daily.” left out
Using Example 4, 20 NHD13 mice (10 males and 10 females per group; RRID:IMSR_JAX:010505) aged 4 months were randomized into treatment groups using matched distribution of hemoglobin levels. […] After 20 weeks of treatment with either mitapivat or Compound 1, bone marrow aspirates of the NHD13 mice were collected as described above and analyzed by flow cytometry. […]

Polg^D257A mice [4] = test: Mitapivat in Polg^D257A MDS-associated anemia mouse model, whole blood hematology (Example 2); assay type: in vivo; settings: 200 mg/kg/day in chow
Method: as §1
Mitochondrial disruption has been linked to the development of anemia in MDS patients (see, e.g., Chen et al. Blood. 2009; 114(19):4045-53). Mitochondria play a key role in regulation of apoptosis, which is a mechanism highlighted in defunct hematopoiesis of MDS (Green et al., Science 1998; 281(5381):1309-1312, Kerbauy et al., Exp Hematol. 2007; 35(11): 1739-1746; Ahlqvist et al. Nature Communications. 2015; 6:6494). B6.12957(Cg)-Polg^tm1prol/J, or Polg^D257A, is a mouse model with a mutation in the N-terminus of the DNA polymerase γ gene that results in impaired proofreading activity in the mitochondria, leading to increased mtDNA mutagenesis (Jackson Laboratory #017341). See, Chen et al. Blood. 2009; 114(19):4045-53 and Ahlqvist et al. Nature Communications. 2015; 6:6494. […] Here, we used the Polg^D257A mouse model to evaluate the therapeutic benefit of a PK activator, mitapivat, in this mechanism of anemia.
Male and female Polg^D257A mice were administered 200 mg/kg/day mitapivat in chow, ad libitum, for 18 weeks starting at 7.5 months of age, once anemic phenotype was established by hematology analysis. Whole blood was collected via tail vein into EDTA tubes and analyzed using a Sysmex XN-2000™ hematology system according to manufacturer protocol. Hemoglobin, red blood cells (RBCs), and reticulocytes were monitored every 2-4 weeks to track disease progression and severity. After 18 weeks of mitapivat treatment, RBC counts were elevated by 45% and hemoglobin levels were increased by 2.4 g/dL in mitapivat treated mice compared to untreated mutants.
See FIGS. 1A-D and FIGS. 2A-D (C57BL/6J mice were used as controls). […] Commensurate with increased hemoglobin was a marked decrease (about 30%) in reticulocyte count.

Polg^D257A mice [5] = test: Bone marrow aspirate flow cytometry of erythroblast populations in Polg^D257A mice (Example 3); assay type: in vivo, mouse; settings: 10 mg/kg/day in chow, 8 months of treatment
Method: as §1, §3

[6] = 200 mg/kg/day in chow, after 24 weeks of treatment
[7] = male and female Polg^D257A mice, after 18 weeks
[8] = 10 mg/kg/day in chow, after 32 weeks of treatment

## O=C(c1ccc(NS(=O)(=O)c2cccc3cccnc23)cc1)N1CCN(CC2CC2)CC1 [mitapivat, N-(4-(4-(cyclopropylmethyl)piperazine-1-carbonyl)phenyl)quinoline-8-sulfonamide]
NHD13 mice [1]
  reduction in reticulocyte count: 15%
  reduction in reticulocyte fraction (FIG. 8C): 20%
  response in Hb compared to vehicle controls (FIG. 8A): minimal response
  response in RBC count compared to vehicle controls (FIG. 8B): minimal response
Polg^D257A mice [2]; [6]
  Hb increased: 7%
  RBC counts increased: 7%
  change in reticulocytes: no change
NHD13 mice [3]
  therapeutic benefit in bone marrow flow cytometry data (erythroblast populations): difficult to detect any therapeutic benefit
Polg^D257A mice [4]; Polg^D257A mice
  decrease in reticulocyte count (FIG. 2C): about 30%
Polg^D257A mice [4]; Polg^D257A mice, after 18 weeks
  frequency of reticulocytes decreased: 30%
Polg^D257A mice [4]; female Polg^D257A mice, after 18 weeks
  therapeutic benefit (hemoglobin), female mutators: responded after 18 weeks
Polg^D257A mice [4]; male Polg^D257A mice, starting at 6-weeks post-treatment
  increase in hemoglobin, male mutators: 1 to 2 g/dL
Polg^D257A mice [4]; [7]
  RBC counts elevated compared to untreated mutants: 45%
  hemoglobin levels increased compared to untreated mutants: 2.4 g/dL

## Cn1c2nc(Cc3cc[nH]n3)sc2c2cnn(Cc3cccc(N)n3)c(=O)c21 [Compound 1, 2-((1H-pyrazol-3-yl)methyl)-6-((6-aminopyridin-2-yl)methyl)-4-methyl-4H-thiazolo[5′,4′:4,5]pyrrolo[2,3-d]pyridazin-5(6H)-one]
NHD13 mice [1]
  reduction in reticulocyte count: 25%
  reduction in reticulocyte fraction (FIG. 8C): 20%
  response in Hb compared to vehicle controls (FIG. 8A): minimal response
  response in RBC count compared to vehicle controls (FIG. 8B): minimal response
Polg^D257A mice [2]; [8]
  change in Hb: no change
  change in RBC count: no change
  change in reticulocyte fraction: no change
NHD13 mice [3]
  therapeutic benefit in bone marrow flow cytometry data (erythroblast populations): difficult to detect any therapeutic benefit
Polg^D257A mice [5]
  late basophilic and polychromatic erythroblasts (EryB) in bone marrow: increase
  orthochromatic and reticulocytes (EryC) in bone marrow: increase
Polg^D257A mice [5]; compared to vehicle control Polg^D257A mice
  ProE (proerythrocyte) population in bone marrow: no additional impact
Polg^D257A mice [5]; vs vehicle control Polg^D257A mice
  basophilic erythroblasts (EryA) in bone marrow: reduction
